Experimental findings from ChEMBL document CHEMBL1201862, “PubChem BioAssay data set” (2004) are described below.

Structures are written as SMILES.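 Values below derive from 48-hour exposures of cells grown in 96-well plates, with endpoints linearly interpolated between the two concentrations bracketing the appropriate inhibition level. At the GI50, growth is halved.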 Calls of active or inactive are those of the source. No stated cut-off is given here; in the data, active = GI50 up to about 1.1 µM and inactive = higher.

Among the test systems are OVCAR-3; CAKI-1; RPMI-8226; RXF 393; HOP-62; T47D; IGROV-1; SK-OV-3; UO-31; A549; SW-620; SR; OVCAR-5; MDA-MB-435; EKVX; K562; SF-268; UACC-62; A498.
Common to all, as to test: growth of human tumour cells (NCI), 48 h

As for `CCOc1cc(NC(C)=O)ccc1C(=O)NN1C(=O)C(Oc2ccccc2)C1c1ccc(O)c(OC)c1` (stereo not given), the GI50 with OVCAR-3 is 41.5 µM (inactive); in the assay on CAKI-1 it was 54.8 µM (inactive); in the assay with RPMI-8226, 25.5 µM (inactive); with RXF 393, 24.3 µM (inactive); in the assay on HOP-62, 42.7 µM (inactive); in the assay on T47D it was 14.4 µM (inactive). Further, the GI50 in the assay on IGROV-1 is 34 µM (inactive); in the assay on SK-OV-3 it was > 100 µM (inactive); in the assay with UO-31, 35 µM (inactive); in the assay with A549, 56.5 µM (inactive); with SW-620 it was 77.4 µM (inactive); with SR it was 25.8 µM (inactive). For the same molecule, the GI50 in the assay on OVCAR-5 is > 100 µM (inactive); with MDA-MB-435, 42.4 µM (inactive); in the assay with EKVX, 35.3 µM (inactive); in the assay on K562 it was 31.3 µM (inactive).
With `[N-]=[N+]=NC[C@H]1OCO[C@H](CN=[N+]=[N-])[C@@H](OCCOCCCl)[C@@H]1OCCOCCCl`, the GI50 in the assay on OVCAR-3 is > 100 µM (inactive); in the assay with CAKI-1, > 100 µM (inactive); in the assay with RPMI-8226, > 100 µM (inactive); in the assay on RXF 393, 5.66 µM (inactive); with HOP-62, > 100 µM (inactive); with T47D, > 100 µM (inactive). Further, the GI50 with IGROV-1 was > 100 µM (inactive); with SK-OV-3, > 100 µM (inactive); in the assay with SF-268, > 100 µM (inactive); in the assay on UO-31, 30.1 µM (inactive); with A549, > 100 µM (inactive); in the assay on SW-620 it was > 100 µM (inactive). In addition, the GI50 in the assay on SR was > 100 µM (inactive); in the assay with UACC-62 it was 80 µM (inactive); in the assay with MDA-MB-435 it was > 100 µM (inactive); with EKVX it was > 100 µM (inactive); with K562, > 100 µM (inactive).
For the molecule `[O-][n+]1c2ccccc2[n+]([O-])c2ccccc21`, the GI50 was > 100 µM (inactive) with CAKI-1; 16.8 µM (inactive) in the assay with RPMI-8226; > 100 µM (inactive) with HOP-62; 35.3 µM (inactive) in the assay on T47D; 46.5 µM (inactive) with IGROV-1; > 100 µM (inactive) with SF-268. For the same molecule, the GI50 in the assay with UO-31 was > 100 µM (inactive); in the assay on A549, 38 µM (inactive); with SW-620, > 100 µM (inactive); in the assay on SR it was 13 µM (inactive); in the assay on A498, > 100 µM (inactive); with UACC-62 it was > 100 µM (inactive). For the same molecule, the GI50 in the assay on OVCAR-5, in the assay with MDA-MB-435, in the assay on EKVX and with K562 was > 100 µM (inactive) each time.
`CO/N=C(/C(=O)N(C(=O)/C(=N/OC)c1csc(NC(c2ccccc2)(c2ccccc2)c2ccccc2)n1)n1cnn(CC(=O)OC(C)(C)C)c1=O)c1csc(NC(c2ccccc2)(c2ccccc2)c2ccccc2)n1`: the GI50 in the assay on OVCAR-3, in the assay with CAKI-1, with RPMI-8226, with RXF 393, with HOP-62 and with T47D was > 10 µM (inactive) each time. The GI50 in the assay with IGROV-1 is > 10 µM (inactive); in the assay on SK-OV-3, > 10 µM (inactive); in the assay with SF-268, > 10 µM (inactive); in the assay with UO-31, 0.0139 µM (active); in the assay with A549 it was > 10 µM (inactive); with SW-620, > 10 µM (inactive). Besides, the GI50 with A498, in the assay on UACC-62, with OVCAR-5, in the assay on MDA-MB-435, in the assay with EKVX and with K562 was > 10 µM (inactive) each time.
As for `CCOC(=O)c1c(-c2ccc(Cl)cc2)c(C#N)c(=S)n(C2OC(COC(C)=O)C(OC(C)=O)C(OC(C)=O)C2OC(C)=O)c1C` (stereo not given), the GI50 with OVCAR-3, in the assay on CAKI-1, in the assay on RXF 393, with HOP-62, in the assay on T47D and with IGROV-1 was > 100 µM (inactive) each time. Moreover, the GI50 in the assay with SK-OV-3 is > 100 µM (inactive); in the assay with SF-268, > 100 µM (inactive); in the assay with UO-31, 0.565 µM (active); in the assay on A549, > 100 µM (inactive); in the assay with SW-620, > 100 µM (inactive); in the assay on SR it was > 100 µM (inactive). Further, the GI50 is 74 µM (inactive) in the assay on A498; > 100 µM (inactive) with UACC-62; > 100 µM (inactive) with OVCAR-5; > 100 µM (inactive) in the assay with MDA-MB-435; > 100 µM (inactive) with EKVX; > 100 µM (inactive) in the assay on K562.
`CCOC(=O)C1C(c2ccc3c(c2)OCO3)c2c(n[nH]c2O)CC1(O)OCC` (stereo not given): the GI50 in the assay with OVCAR-3, in the assay on CAKI-1, with RPMI-8226, in the assay on HOP-62, with T47D and in the assay with IGROV-1 was > 100 µM (inactive) throughout. Also, the GI50 with SF-268, with UO-31, in the assay on A549, with SW-620, in the assay with SR and with A498 was > 100 µM (inactive) throughout. The GI50 in the assay with UACC-62, in the assay on OVCAR-5, with MDA-MB-435 and in the assay on EKVX was > 100 µM (inactive) each time.
Take `Nc1ncnc2c1ncn2[C@@H]1C[C@@H]1CO`: the GI50 in the assay with OVCAR-3, with RPMI-8226, in the assay on HOP-62, in the assay with T47D, in the assay on UO-31 and in the assay on A549 was > 100 µM (inactive) in each case. The GI50 with SW-620, in the assay with SR, with A498, with OVCAR-5, in the assay on MDA-MB-435 and in the assay with EKVX was > 100 µM (inactive) in each case. For the same molecule, the GI50 with K562 is > 100 µM (inactive).
For the molecule `CC1(C)OCC2(CO1)CSCCCSCC1(COC(C)(C)OC1)CSCCCSC2`, the GI50 in the assay with OVCAR-3, with RPMI-8226, in the assay with HOP-62, in the assay on T47D, with IGROV-1 and with SK-OV-3 was > 100 µM (inactive) throughout. In addition, the GI50 in the assay with SF-268, with UO-31, with A549, in the assay with SW-620, with SR and in the assay on UACC-62 was > 100 µM (inactive) throughout. Further, the GI50 with OVCAR-5, in the assay with MDA-MB-435, in the assay with EKVX and in the assay on K562 was > 100 µM (inactive) each time.
